From patent US6369069B1 (Aventis Pharma Deutschland GmbH, priority 1998, dated 2002) come the findings set out here.

Each structure is given as a SMILES string.

The first experiment deals with Na^+-dependent Cl^−/HCO3^− exchanger (NCBE). Description: Inhibition of the Na+-dependent Cl−/HCO3− exchanger (NCBE) in human endothelial cells (pHi recovery, BCECF fluorescence, FLIPR). The format is cell-based. To be noted: 10 μM. Summed up:
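ECV-304 cells loaded with 5 μM BCECF-AM in NH4Cl-containing saline, then placed in Na+/HCO3−-free buffer to acidify. pHi recovery started with Na+/HCO3− buffer (50 μM HOE 642) plus compound at various concentrations. Fluorescence kinetics over 2 min at 35 °C, normalised to 100% and 0% (HCO3−-free) controls.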
Regarding `COc1ccccc1CN(Cc1ccc(-c2ccccc2S(=O)(=O)NC#N)cc1)C(=O)c1ccccc1F` [Example 94], the “Residual activity % of the NCBE at 10 μM” value was found to be 87.7%.

As for `COc1cccc(CN(Cc2ccc(-c3ccccc3S(=O)(=O)NC#N)cc2)C(=O)c2cc3ccccc3s2)c1` [Example 76], the “Residual activity % of the NCBE at 10 μM” value stood at 87.3%.

Regarding `N#CNS(=O)(=O)c1ccccc1-c1ccc(CN(Cc2ccccc2)C(=O)C2CCCCC2)cc1` [Example 13], the “Residual activity % of the NCBE at 10 μM” value worked out at 74.7%.

As for `C#CCN(Cc1ccc(-c2ccccc2S(=O)(=O)NC#N)cc1)C(=O)C(NC(=O)OCc1ccccc1)c1ccccc1` (centres unmarked) [Example 246], the “Residual activity % of the NCBE at 10 μM” value is 65.0%.

With `N#CNS(=O)(=O)c1ccccc1-c1ccc(CN(CC2CC2)C(=O)COc2ccccc2)cc1` [Example 168], the “Residual activity % of the NCBE at 10 μM” value is on record as 96.4%.

With `C[C@H](c1ccccc1)N(Cc1ccc(-c2ccccc2S(=O)(=O)NC#N)cc1)C(=O)c1cc2ccccc2s1` [Example 78], the “Residual activity % of the NCBE at 10 μM” value turned out to be 88.5%.

Turning to `Cc1ccccc1CN(Cc1ccc(-c2ccccc2S(=O)(=O)NC#N)cc1)C(=O)Cc1cccs1` [Example 312], the “Residual activity % of the NCBE at 10 μM” value amounted to 12.5%.

Regarding `N#CNS(=O)(=O)c1ccccc1-c1ccc(CN(Cc2ccc(Cl)cc2)C(=O)Cc2cccs2)cc1` [Example 28], the “Residual activity % of the NCBE at 10 μM” value stood at 95.2%.

Turning to `N#CNS(=O)(=O)c1ccccc1-c1ccc(CN(CCOc2ccccc2)C(=O)Cc2ccc(Cl)cc2)cc1` [Example 151], the “Residual activity % of the NCBE at 10 μM” value amounted to 29.0%.

As for `CCN(Cc1ccc(-c2ccccc2S(=O)(=O)NC#N)cc1)C(=O)C(=O)c1cccs1` [Example 199], the “Residual activity % of the NCBE at 10 μM” value stood at 54.7%.

For the compound `N#CNS(=O)(=O)c1ccccc1-c1ccc(CN(Cc2ccc(C(F)(F)F)cc2)C(=O)Cc2ccccc2)cc1` [Example 129], the “Residual activity % of the NCBE at 10 μM” value turned out to be 47.4%.

Turning to `COCCN(Cc1ccc(-c2ccccc2S(=O)(=O)NC#N)cc1)C(=O)Cc1c[nH]c2ccccc12` [Example 203], the “Residual activity % of the NCBE at 10 μM” value is on record as 30.3%.

As to `COc1ccccc1CN(Cc1ccc(-c2ccccc2S(=O)(=O)NC#N)cc1)C(=O)c1cc2ccccc2s1` [Example 74], the “Residual activity % of the NCBE at 10 μM” value turned out to be 54.7%.

As for `C[C@H](c1ccccc1)N(Cc1ccc(-c2ccccc2S(=O)(=O)NC#N)cc1)C(=O)c1ccccc1F` [Example 98], the “Residual activity % of the NCBE at 10 μM” value is 98.0%.

In the case of `C[C@@H](c1ccccc1)N(Cc1ccc(-c2ccccc2S(=O)(=O)NC#N)cc1)C(=O)Cc1cccs1` [Example 132], the “Residual activity % of the NCBE at 10 μM” value stood at 63.8%.

Regarding `N#CNS(=O)(=O)c1ccccc1-c1ccc(CN(Cc2cccc(Cl)c2)C(=O)Cc2ccccc2Br)cc1` [Example 278], the “Residual activity % of the NCBE at 10 μM” value is given as 31.2%.

On to `Cc1ccccc1CN(Cc1ccc(-c2ccccc2S(=O)(=O)NC#N)cc1)C(=O)CC1CCCCC1` [Example 352], for which the “Residual activity % of the NCBE at 10 μM” value is 35.2%.

With `N#CNS(=O)(=O)c1ccccc1-c1ccc(CN(CCCc2ccccc2)C(=O)Cc2ccsc2)cc1` [Example 226], the “Residual activity % of the NCBE at 10 μM” value is recorded as 34.8%.

As for `N#CNS(=O)(=O)c1ccccc1-c1ccc(CN(Cc2ccc(C(F)(F)F)cc2)C(=O)Cc2cccs2)cc1` [Example 235], the “Residual activity % of the NCBE at 10 μM” value stood at 67.1%.

Regarding `N#CNS(=O)(=O)c1ccccc1-c1ccc(CN(Cc2ccc3c(c2)OCO3)C(=O)c2ccccc2Cl)cc1` [Example 107], the “Residual activity % of the NCBE at 10 μM” value is listed as 96.4%.

As for `CC(C)(C)CC(=O)N(CCOc1ccccc1)Cc1ccc(-c2ccccc2S(=O)(=O)NC#N)cc1` [Example 160], the “Residual activity % of the NCBE at 10 μM” value is 71.6%.

For the compound `N#CNS(=O)(=O)c1ccccc1-c1ccc(CN(Cc2cccc3ccccc23)C(=O)Cc2ccccc2Cl)cc1` [Example 293], the “Residual activity % of the NCBE at 10 μM” value was determined as 55.1%.

On to `COCCC(=O)N(Cc1ccc(-c2ccccc2S(=O)(=O)NC#N)cc1)Cc1ccccc1F` [Example 326], for which the “Residual activity % of the NCBE at 10 μM” value worked out at 25.6%.

Turning to `CCN(Cc1ccc(-c2ccccc2S(=O)(=O)NC#N)cc1)C(=O)Cc1csc2ccccc12` [Example 215], the “Residual activity % of the NCBE at 10 μM” value came out at 65.7%.

As for `COc1ccc(CC(=O)N(Cc2ccc(-c3ccccc3S(=O)(=O)NC#N)cc2)Cc2cc(OC)c(OC)c(OC)c2)cc1` [Example 176], the “Residual activity % of the NCBE at 10 μM” value amounted to 83.9%.

For the compound `Cc1ccc(CN(Cc2ccc(-c3ccccc3S(=O)(=O)NC#N)cc2)C(=O)c2cc3ccccc3s2)cc1` [Example 75], the “Residual activity % of the NCBE at 10 μM” value stood at 80.3%.

On to `COc1ccc(CC(=O)N(CCOc2ccccc2)Cc2ccc(-c3ccccc3S(=O)(=O)NC#N)cc2)cc1` [Example 173], for which the “Residual activity % of the NCBE at 10 μM” value is recorded as 76.4%.

Regarding `N#CNS(=O)(=O)c1ccccc1-c1ccc(CN(CCO)C(=O)c2ccccc2F)cc1` [Example 38], the “Residual activity % of the NCBE at 10 μM” value is 66.7%.

In the case of `N#CNS(=O)(=O)c1ccccc1-c1ccc(CN(C(=O)CCOc2ccccc2)C2CCCc3ccccc32)cc1` (centres unmarked) [Example 345], the “Residual activity % of the NCBE at 10 μM” value was found to be 39.8%.

On to `N#CNS(=O)(=O)c1ccccc1-c1ccc(CN(CCCc2ccccc2)C(=O)CCCc2cccs2)cc1` [Example 186], for which the “Residual activity % of the NCBE at 10 μM” value was determined as 9.7%.

Regarding `COc1ccc(CC(=O)N(Cc2ccc(-c3ccccc3S(=O)(=O)NC#N)cc2)Cc2ccccc2Cl)cc1` [Example 174], the “Residual activity % of the NCBE at 10 μM” value is 50.2%.

The same experiment, now with this note: 10 μM compound; human endothelial cells (ECV-304); related to 100% and 0% pHi recovery controls.
For `N#CNS(=O)(=O)c1ccccc1-c1ccc(CN(Cc2ccccc2)S(=O)(=O)c2cccs2)c(Cl)c1` [Example 556, 4′-{[Benzyl-(2-thiophen-2-sulfonyl)amino]methyl}-3′-chlorobiphenyl-2-sulfonylcyanamide], the “Residual activity of the NCBE at 10 μM” value is 0%.

The same experiment, now with this note: compound at 10 μM; R(3) to R(7) hydrogen series.
With `CCC(CC)(CN(Cc1ccc(-c2ccccc2S(=O)(=O)NC#N)cc1)C(=O)Cc1cccs1)c1ccc(OC)cc1` [Example 395], the “Residual activity % of the NCBE at 10 μM” value turned out to be 50.9%.

Still in this experiment, the particulars now being: compound at 10 μM; sub-table with R7 substituent.
`Cc1ccc(-c2ccc(CN(Cc3ccccc3Cl)C(=O)Cc3ccc(Cl)cc3)cc2)c(S(=O)(=O)NC#N)c1` [Example 532]: the “Residual activity % of the NCBE at 10 μM” value is 71.0%.

With `Cc1ccc(-c2ccc(CN(CCc3ccccc3)C(=O)CC3CCCCC3)cc2)c(S(=O)(=O)NC#N)c1` [Example 550], the “Residual activity % of the NCBE at 10 μM” value worked out at 63.3%.

Consider `Cc1ccc(-c2ccc(CN(Cc3ccccc3Cl)C(=O)CC3CCCCC3)cc2)c(S(=O)(=O)NC#N)c1` [Example 548], for which the “Residual activity % of the NCBE at 10 μM” value was 65.2%.

As to `Cc1ccc(-c2ccc(CN(Cc3cccc4ccccc34)C(=O)C(C)c3cccs3)cc2)c(S(=O)(=O)NC#N)c1` (centres unmarked) [Example 522], the “Residual activity % of the NCBE at 10 μM” value worked out at 85.6%.

`Cc1ccc(-c2ccc(CN(Cc3cccc(Cl)c3Cl)C(=O)Cc3ccsc3)cc2)c(S(=O)(=O)NC#N)c1` [Example 544]: the “Residual activity % of the NCBE at 10 μM” value is on record as 82.2%.

`Cc1ccc(-c2ccc(CN(Cc3ccccc3F)C(=O)C(C)c3cccs3)cc2)c(S(=O)(=O)NC#N)c1` (centres unmarked) [Example 527]: the “Residual activity % of the NCBE at 10 μM” value is recorded as 67.5%.

As for `Cc1ccc(-c2ccc(CN(Cc3cccc(Cl)c3Cl)C(=O)Cc3cccs3)cc2)c(S(=O)(=O)NC#N)c1` [Example 520], the “Residual activity % of the NCBE at 10 μM” value was 85.9%.

For the compound `Cc1ccc(-c2ccc(CN(Cc3cccs3)C(=O)Cc3ccc(Cl)cc3)cc2)c(S(=O)(=O)NC#N)c1` [Example 533], the “Residual activity % of the NCBE at 10 μM” value came out at 75.5%.
